This note sets out measurements from ChEMBL document CHEMBL3856237, “Synthesis and antinociceptive activity of new 2-substituted 4-(trifluoromethyl)-5,6-dihydrobenzo[h]quinazolines” (Bioorg Med Chem Lett, 2016).

SMILES strings stand for the structures. Activity calls are given as the source filed them.

Data set [1] is described as follows: Solubility of the compound in DMSO. It counts as physicochemical.
Data set [2] relates to Mus musculus. The data set can be described thus: Toxicity in Swiss mouse assessed as effect on spontaneous locomotory activity by measuring number of areas crossed at 100 mg/kg administered via oral gavage for 1 hr measured up to 5 mins post dose by open field test (reference value: 27 +/- 6 ). It counts as organism-based. Particulars: in vivo.
For data set [3], the system named is Mus musculus. The data set is described as follows: Toxicity in Swiss mouse assessed as effect on forced locomotory activity at 100 mg/kg administered via oral gavage for 1 hr measured up to 4 mins post dose by rotarod test. It counts as organism-based. Particulars: in vivo.
Data set [4] has as its system Mus musculus. The data set can be described thus: Antinociceptive activity in Swiss mouse assessed as inhibition of capsaicin induced nociception by measuring paw licking time at 100 mg/kg administered via oral gavage for 1 hr followed by capsaicin challenge measured for 5 mins post dose relative to control. It counts as functional.
Data set [5] has as its system Mus musculus. The data set can be described thus: Antinociceptive activity in CFA-induced arthritic pain Swiss mouse model assessed as inhibition of mechanical hyperalgesia by measuring paw withdrawal threshold at 300 mg/kg administered via oral gavage measured at 2 hrs post dose by Von Frey filament assay relative to control. It counts as functional.
In data set [6] the test system is Mus musculus. The data set can be described thus: Antinociceptive activity in CFA-induced arthritic pain Swiss mouse model assessed as inhibition of mechanical hyperalgesia by measuring paw withdrawal threshold at 100 mg/kg administered via oral gavage measured at 2 hrs post dose by Von Frey filament assay relative to control. In kind it is functional.
For data set [7], the system named is Mus musculus. The data set can be described thus: Antinociceptive activity in CFA-induced arthritic pain Swiss mouse model assessed as inhibition of mechanical hyperalgesia by measuring paw withdrawal threshold at 100 mg/kg administered via oral gavage measured up to 4 hrs post dose by Von Frey filament assay. It counts as functional, organism-based.
The test system of data set [8] is Mus musculus. The data set can be described thus: Antinociceptive activity in CFA-induced arthritic pain Swiss mouse model assessed as inhibition of mechanical hyperalgesia by measuring paw withdrawal threshold administered via oral gavage measured at 2 hrs post dose by Von Frey filament assay. It counts as functional. The conditions noted are these: for ED50: read-out: ID50 (the source's name); for minimal effective dose: read-out: MED.

In data set [9] the test system is Mus musculus. The data set is described as follows: Antinociceptive activity in CFA-induced arthritic pain Swiss mouse model assessed as inhibition of mechanical hyperalgesia by measuring paw withdrawal threshold at 100 mg/kg administered via oral gavage measured up to 2 hrs post dose by Von Frey filament assay. In kind it is functional, organism-based.

What is called inhibition in vivo is the share of the control response that was lost under treatment.

For the molecule `FC(F)(F)c1ncnc2c1CCc1ccccc1-2`, in data set [1], the solubility result was “Insoluble”.

On to `CSc1nc2c(c(C(F)(F)F)n1)CCc1ccccc1-2`, for which the Activity in the data set with Mus musculus [2] is 23; in the data set with Mus musculus [3], “Non-Toxic”.

Turning to `Nc1nc2c(c(C(F)(F)F)n1)CCc1ccccc1-2`, the Activity with Mus musculus [2] is listed as 22; in the data set with Mus musculus [3], “Non-Toxic”.

Turning to `CC(C(=O)O)c1cccc(C(=O)c2ccccc2)c1` (stereo unspecified) [KETOPROFEN], the inhibition in vivo at 100 mg/kg in the data set on Mus musculus [4] was 81%. Also, the Imax is listed as 75% in the data set with Mus musculus [5] and 70% with Mus musculus [6]. Also, the Activity in the data set on Mus musculus [2] is reported as 38; with Mus musculus [3], “Non-Toxic”. Moreover, the inhibition result in the data set with Mus musculus [7] was “Active”. In addition, the ED50 in the data set with Mus musculus [8] is 144 mg/kg. In addition, in the data set on Mus musculus [8], the minimal effective dose was in the range of 100 to 300 mg/kg.

Take `FC(F)(F)c1nc(-c2ccccc2)nc2c1CCc1ccccc1-2`: the inhibition in vivo at 100 mg/kg in the data set with Mus musculus [4] amounted to 65%. For the same molecule, the Activity is listed as 25 in the data set with Mus musculus [2] and “Non-Toxic” in the data set on Mus musculus [3]. The Imax in the data set on Mus musculus [6] was 64 - 71%. Further, in the data set on Mus musculus [9], the inhibition entry was “Active”. For the same molecule, the solubility entry in data set [1] is “Soluble”. Also, in the data set on Mus musculus [8], the ED50 was 241 mg/kg. Moreover, in the data set on Mus musculus [8], the minimal effective dose turned out to be 100 mg/kg.

For the molecule `Cc1nc2c(c(C(F)(F)F)n1)CCc1ccccc1-2`, the solubility entry in [1] was “Insoluble”.

Take `FC(F)(F)c1nc(-n2cccc2)nc2c1CCc1ccccc1-2`: the inhibition in vivo at 100 mg/kg in the data set with Mus musculus [4] was determined as 67%. The Activity with Mus musculus [2] is 23; in the data set with Mus musculus [3] it was “Non-Toxic”. Besides, the solubility entry in data set [1] is listed as “Soluble”.
